Reference: patent US6093702A, “Mixtures of dideoxy-nucleosides and hydroxycarbamide for inhibiting retroviral spread” (The United States of America as represented by the …, priority 1995, dated 2000)
Entries after “also recorded” stand apart in the source; their conditions may differ. Where two headings read alike, the source gives them in different places.

What was measured:
HIV-1 virus strain IIIB = test: microbe, parasite or virus in culture; conditions: for inhibition at 5 µM: read-out: inhibition of viral replication; for effect on viral replication (in words): non-activated CD4+ lymphocytes, HC 0.05 or 0.15 mM, ddI or AZT 5 μM; for p24-HIV production in culture supernatant: day 15, infected control 86215
Protocol: (§1) Non-activated CD4^+ cells were infected, then treated for 7 days by HC, ddI or the combination of the two, then activated by PHA and IL-2 (PHA-IL-2).
(§2) The CD4^+ lymphocytes were purified from PBMC with immunomagnetic beads (Dynabeads* M450). These cells were infected with the HIV-1 virus strain IIIB at a multiplicity of infection of 5 000 tissue culture infectious dose (TCID) per 10^6 cells (241 pg/ml p24 antigen equivalent of virus). After 2 hours of virus-cell contact, the cells were washed twice and placed in the culture medium RPMI 1640 (supplemented with 10% fetal calf serum (FCS), 2 mM glutamine, penicillin 100 IU/ml and Streptomycin 100 μg/ml) at a density of 1.3×10^6 cells/ml. ddI was immediately added at a concentration of 5 μM and HC at concentrations of 0.05 mM and […]. The drugs and culture medium were partially renewed (50%) on day 4, maintaining the same concentration of each. On day 7, in order to remove the drugs, the cells were washed twice and put back in culture in the presence of PHA at a concentration of 1 μg/ml and recombinant IL-2 at a concentration of 20 U/ml. This culture was maintained until day 25, with partial renewal (50%) of the medium twice a week. The number of viable cells was quantified by a tetrazolium-based colorimetric 3-(4,5-dimethylthiazol-2-yl)-2,5-diphenyltetrazolium bromide (MTT) method (Pauwels, R. et al J. Virol. Methods, 20, 309-321, (1988)), and activity is expressed as a percentage of the signal in the drug-free and virus-free control. Viral replication was quantified by measuring the HIV-1 p24 antigen by ELISA using the Dupont de Nemours kit.
In FIG. 2, there is shown a study of the activity of the combination of AZT and HC on non-activated CD4^+ lymphocytes infected with the HIV virus. The CD4^+ lymphocytes were purified from PBMC with immunomagnetic beads (Dynabeads* M450). These cells were infected with the HIV-1 virus strain IIIB at a multiplicity of infection of 5 000 tissue culture infectious dose (TCID) per 10^6 cells (241 pg/ml p24 antigen equivalent of virus). After 2 hours of virus-cell contact, the cells were washed twice and placed in the culture medium RPMI 1640 (supplemented with 10% FCS, 2 mM glutamine, penicillin 100 IU/ml and streptomycin 100 μg/ml) at a density of 1.3×10^6 cells/ml. AZT was immediately added at a concentration of 5 μM and HC at a concentration of 0.05 mM and 0.15 mM. The drugs and culture medium were partially renewed (50%) on day 4, maintaining the same concentration of each. On day 7, in order to remove the drugs, the cells were washed twice and put back in culture in the presence of PHA at a concentration of 1 μg/ml and recombinant IL-2 at a concentration of 20 U/ml. This culture was maintained until day 25, with partial renewal (50%) of the medium twice a week. The number of viable cells was quantified by a tetrazolium-based colorimetric 3-(4,5-dimethylthiazol-2-yl)-2,5-diphenyltetrazolium bromide (MTT) method (Pauwels, R. et al J. Virol. Methds, 20,309-321, (1988)), and activity is expressed as a percentage of the signal in the drug-free and virus-free control. Viral replication was quantified by measuring the HIV-1 p24 antigen by ELISA using the Dupont de Nemours kit.

in vitro = conditions: human, cd4+ lymphocytes
Protocol: as §1
as §2, with “This culture was maintained until day 25, with partial renewal (50%) of the medium twice a week.” left out
(§3) In FIG. 2, there is shown a study of the activity of the combination of AZT and HC on non-activated CD4^+ lymphocytes infected with the HIV virus. […] The number of viable cells was quantified by a tetrazolium-based colorimetric 3-(4,5-dimethylthiazol-2-yl)-2,5-diphenyltetrazolium bromide (MTT) method (Pauwels, R. et al J. Virol. Methds, 20,309-321, (1988)), and activity is expressed as a percentage of the signal in the drug-free and virus-free control. Viral replication was quantified by measuring the HIV-1 p24 antigen by ELISA using the Dupont de Nemours kit.

[1] = Cell viability of preactivated PBMC by Trypan Blue exclusion; type: cell-based; conditions: human, HC 0.15 mM, 2% Trypan Blue exclusion, read-out: cellular viability
HIV-1 strain IIIB = test: microbe, parasite or virus in culture; conditions: for p24 production: day 6
Protocol: (§4) The PBMC were purified from peripheral blood by discontinous Ficoll density gradient centrifugation. The cells were grown at a density of 1.3×10^6 cells/ml in RPMI 1640 medium supplemented with 10% FCS, 2 mM glutamine, penicillin 100 IU/ml and streptomycin 100 μg/ml, in the presence of PHA at a concentration of 1 μg/ml and recombinant IL-2 at 20 U/ml for 72 hours, then infected by HIV-1 strain IIIB at a multiplicity of 5000 TCID for 10^6 cells (241 pg/ml p24 antigen equivalent of virus). In FIG. 3, the first time point represent viral infection of the cells. After 2 hours of virus-cell contact, the cells were washed twice and placed in the culture medium containing IL-2 but without PHA in the presence of ddI at a concentration of 10 μM and of HC at a concentration of 0.15 mM. These cultures were maintained for 20 days, with partial renewal of the medium and of the two drugs twice a week maintaining the initial concentration. At day 6 and day 14 fresh uninfected donor PBMC were added (5×10^5 /ml) to replenish aged cultures (Nature, 361:1993, 650-654). The number of viable cells were quantified by a tetrazolium-based colorimetric 3-(4,5-dimethylthiazol-2-yl)-2,5-diphenyltetrazolium bromide (MTT) method (Pauwels, R. et al J. Virol. Methods, 20:309-321, (1988)), and activity is expressed as a percentage of the signal in the drug-free and virus-free control. Viral replication was quantified by measuring the HIV-1 p24 antigen by ELISA using the Dupont de Nemours kit.

[2] = test system: PBMC preactivated with PHA and IL-2; test: Inhibitory concentration 50% in preactivated PBMC by MTT test; type: cell-based; conditions: 72 h, read-out: IC50 (inhibitory concentration 50%), after 3 days
Protocol: as §4, with “At day 6 and day 14 fresh uninfected donor PBMC were added (5×10^5 /ml) to replenish aged cultures (Nature, 361:1993, 650-654).” left out

[3] = Cytotoxicity in non-activated lymphocytes (PBLs) pretreated 24 h and then activated 48 h; type: cell-based; conditions: human, HC 1 mM, 24 h pretreatment, then PHA and IL-2 for 48 h in presence of HC, read-out: PBLs dying due to the drug's toxicity
Excerpt: Under such conditions, greater than 70% of the PBLs die due to the drug's toxicity.

[4] = test system: dNTP pools in PHA-stimulated PBLs; conditions: HC 1 mM, cited from earlier work
[5] = test system: non-activated CD4+ lymphocytes; test: in vitro; conditions: after PHA-IL-2 stimulation
Protocol: as §1
as §2, with “This culture was maintained until day 25, with partial renewal (50%) of the medium twice a week.” left out
as §3

[6] = Human immunodeficiency virus 1, IIIB, Lymphocyte
[7] = single drug 5 μM, infected control 86215 pg p24/ml
[8] = Human immunodeficiency virus 1, IIIB, PBMC, 144 h, read-out: inhibition of viral replication

Row | Structure (SMILES) | log reduction at 5 µM (HIV-1 virus strain IIIB; Human immunodeficiency virus 1, IIIB, Lymphocyte, read-out: antiviral activity (log reduction)) | inhibition at 5 µM (HIV-1 virus strain IIIB; [6]) [%] | effect on viral replication (in words) (HIV-1 virus strain IIIB) | p24 production (HIV-1 virus strain IIIB; [7]) [pg p24/ml] | p24-HIV production in culture supernatant (HIV-1 virus strain IIIB; HC 0.05 mM) | p24-HIV production in culture supernatant (HIV-1 virus strain IIIB; HC 0.15 mM) | cytotoxicity at 50 µM (in vitro) [%] | cytotoxicity at 150 µM (in vitro) [%] | viability at 72 h, 150 µM [1] [%] | p24 production (HIV-1 strain IIIB; HC alone 0.15 mM) [pg p24/ml] | inhibition at 150 µM (HIV-1 strain IIIB; [8]) [%] | IC50 [2] [µM] | cytotoxicity at 72 h, 1000 µM [3] [%] | effect on dNTP levels and DNA synthesis rate (in words) ([4]; listed as hydroxyurea) | effect on dNTP levels and DNA synthesis rate (in words) [4] | p24 production (HIV-1 virus strain IIIB; ddI 5 μM alone, day 25) [pg p24/ml] | proliferative cellular response / cytopathic effect (in words) [5] | inhibition at 10 µM (HIV-1 strain IIIB; [8]) [%] | p24 production (HIV-1 strain IIIB; ddI alone 10 μM) [pg p24/ml]
1 | Cc1cn([C@H]2C[C@H](N=[N+]=[N-])[C@@H](CO)O2)c(=O)[nH]c1=O [AZT, 3'-azido-2',3'-dideoxythymidine] | < 1 | 88.4 | only slight antiviral activity; also recorded: only a slight effect on viral replication | 10300 | – | – | – | – | – | – | – | – | – | – | – | – | – | – | –
2 | NC(=O)NO [HC, hydroxycarbamide] | – | – | incapable of preventing the production of infectious virions | – | 75460 pg of p24/ml | 82005 pg of p24/ml | > 50 | > 50 | > 90 | 12500 | 82.6 | 150 | > 70 | decreases dNTP levels and the DNA synthesis rate to levels comparable to quiescent PBLs; also recorded: decreases the dNTP levels and the DNA synthesis rate to levels comparable to quiescent PBLs | partially reduces the various dNTP pools studied | – | – | – | –
3 | OC[C@@H]1CC[C@H](n2cnc3c(O)ncnc32)O1 [ddI, 2',3'-dideoxy-inosine] | – | 99.1 | reached substantially the same level of p24 production as the infected control; also recorded: only temporarily and partially inhibited | 766 | – | – | – | – | – | – | – | – | – | – | – | 101080 | cytopathic effect was observed later | 97.1 | 2071
